Laboratory results taken from article PMC8653689, “Phenanthrotriazine Derivatives Containing Arylidine Hydrazone Moieties as Novel Potential c-Met Inhibitors with Anticancer Effect” (Iranian Journal of Pharmaceutical Research : IJPR, 2021).
Like-named read-outs stand apart in the source and are kept apart here.

What was measured:
[1] = system: HT-29 (human colorectal adenocarcinoma) cells; assay: MTT reduction assay, antiproliferative effect, HT-29; format: cell-based; conditions: for IC50: read-out: HT-29 IC50; for viability at 25 µM: cell line not named in the sentence (NA in HT-29, MCF-7, MOLT-4 in Table 1), read-out: Cell viability at the highest tested concentration
From the text: (§1) Fetal bovine serum (FBS), phosphate-buffered saline (PBS), RPMI-1640, and trypsin were obtained from Biosera (Ringmer, UK). Penicillin/streptomycin and MTT (3-(4,5-dimethylthiazol-2-yl)-2,5-diphenyltetrazolium bromide) were from Sigma-Aldrich (Saint Louis, MO, USA) and Invitrogen (San Diego, CA, USA), respectively. Dimethyl sulfoxide and doxorubicin were purchased from Merck (Darmstadt, Germany) and EBEWE Pharma (Unterach, Austria), respectively. The cells were acquired from Iranian Biological Resource Center, Tehran, Iran (HT-29 (human colorectal adenocarcinoma), MCF-7 (human breast adenocarcinoma) and Vero (African green monkey kidney) cells) or National Cell Bank of Iran, Pasteur Institute, Tehran, Iran (MOLT-4 (lymphoblastic leukemia) cells).
(§2) MTT reduction assay was employed to assess the viability of cancer cells after being treated with synthesized derivatives as previously described ([34]). The cells were plated in flat-bottom 96-well microplates, at densities of 3 × 10^4 cells/mL (100 μL in each well) and then incubated overnight at 37 °C. Three to four different concentrations of synthesized derivatives (in the range of 1 to 100 μM) were placed in triplicate wells and the plates were incubated for 72 h at 37 °C. […] At the end of the incubation time, 80 μL of the media in each well was replaced with the same amount of growth medium without phenol red containing 0.5 mg/mL of MTT. Cells were further incubated at 37 °C for 4 h and then 80 μL of the solution of each well was removed. The addition of DMSO (200μL) to each well solubilized the formazan crystals formed inside the viable cells after 1-hour incubation followed by 30-minute shaking. The optical absorbance of the final solution was determined at 570 nm using a Bio-Tek multimode plate reader (Synergy HTX). The cell viability was calculated compared to untreated control cells by comparison of absorbance measurements. CurveExpert software (version 1.34 for Windows) was used to determine the IC50 value for each compound. To confirm the results, every experiment was repeated 3 to 5 times.

[2] = system: Vero (African green monkey kidney) cells; assay: MTT reduction assay, Vero normal cells; format: cell-based; conditions: read-out: Vero IC50
From the text: as §1, §2

[3] = system: MCF-7 (human breast adenocarcinoma) cells; assay: MTT reduction assay, antiproliferative effect, MCF-7; format: cell-based
From the text: as §1, §2

[4] = system: MOLT-4 (lymphoblastic leukemia) cells; assay: MTT reduction assay, antiproliferative effect, MOLT-4; format: cell-based, human; conditions: read-out: MOLT-4 IC50
From the text: as §1, §2

[5] = system: MCF-7 cells; assay: Cell cycle analysis, propidium iodide/RNase flow cytometric assay; format: cell-based, human; conditions: 48 h; for Effect on number of cells in G0/G1: MCF-7, 10 and 25 µM
Description: Alterations of the cell cycle were determined by the propidium iodide (PI)-RNase flow cytometric method ([35]). MCF-7 cells were used to determine the percentage of cells in each phase of the cell cycle. In 6-well plates, 2 × 10^5 cells were seeded in each well and incubated at 37 °C for 48 h. Afterward, they were treated for 48 h with derivatives 9g, 9j, 9k and 9l at 10 and 25 μM. The cells were then collected after trypsinization, washed twice with PBS, and fixed by 5 mL ethanol 70% for at least 24 h at -20 °C. After fixation, MCF-7 cells were washed with PBS two times and stained with PI 20 µg/mL and RNase 200 µg/mL for 30 min in the dark at room temperature. A FACS Calibur ﬂow cytometer (BD Biosciences) was used for the assays and 20,000 events were analyzed. The number of cells distributed in sub-G1, G0/G1, S, and G2/M were determined by CellQuest software (BD, USA).
Figure 2 Representative cell cycle histograms of MCF-7 cells treated with synthesized derivatives. Analysis of the percentage of cells in different phases of cell cycle was performed using propidium iodide (PI)-RNase flow cytometric assay. MCF-7 cells were seeded in 6-well microplates and treated with synthesized derivatives for 48 h. The cells were then collected and fixed in 70% ethanol overnight at -20 °C. In the end, the cells were stained with DNA staining solution (PI 20 µg/mL and RNase 200 µg/mL) for 30 min and 20,000 events were analyzed by a FACS Calibur ﬂow cytometer (BD Biosciences). Representative histograms of cells treated with compounds 9g, 9j, 9k and 9l are shown

[6] = system: MCF-7 cells; assay: Hoechst 33258 staining, detection of apoptosis; format: cell-based, human; conditions: MCF-7, 72 h treatment, especially at 25 µM
Description: Hoechst 33258 was used as a DNA stain to detect apoptosis in cells. MCF-7 cells were seeded in a 6-well plate at a density of 5 × 10^4 cells/mL (2 mL per well) and incubated for 24 h. The whole medium was removed and different concentrations of test compounds 9g, 9j, 9k, and 9l diluted in 2 mL medium were placed in the different wells and incubated for 72 h. Afterward, the medium was removed again, 1 mL of 4% cold freshly prepared paraformaldehyde (PFA) was added, and cells were incubated for 20 min at room temperature. The cells were then washed 2 times with 1 ml PBS and incubated with 1 mL Hoechst 33258 2.5 µg/mL for 30 min in the dark at room temperature ([36], [37]). In the end, the cells were washed with 1 mL PBS and imaged with a fluorescence microscope.
Figure 3 Detection of apoptosis in MCF-7 cells by Hoechst staining. Hoechst 33258 was used as a DNA stain to detect apoptosis in MCF-7 cells treated with synthesized compounds. The cells were seeded in a 6-well plates and treated with different concentrations of test compounds 9g, 9j, 9k and 9l for 72 h. After removing the whole medium, 4% cold freshly prepared paraformaldehyde (PFA) was added for 20 min at room temperature, the cells were then washed twice with PBS, and incubated with Hoechst 33258 2.5 µg/mL for 30 min at room temperature in the dark. Finally, the cells were washed with PBS again and the plates were imaged with a fluorescence microscope

[7] = Chlorocebus sabaeus, Vero, 72 h
[8] = Homo sapiens, MCF7, 72 h, read-out: MCF-7 IC50, MTT, 72 h incubation

COc1ccccc1C=NNc1nnc2c3ccccc3c3ccccc3c2n1 [Compound 9b, 3-(2-(2-methoxybenzylidene)hydrazinyl)phenanthro[9,10-e][1,2,4]triazine]
IC50 ([1]; Homo sapiens, HT-29, 72 h): 20.1 ± 3 µM | IC50 [2, 7]: 13 ± 1.8 µM | IC50 [3, 8]: 15.2 ± 3.1 µM | IC50 ([4]; Homo sapiens, MOLT-4, 72 h): 7.8 ± 1.8 µM | melting point: 252 to 254 °C

C(=NNc1nnc2c3ccccc3c3ccccc3c2n1)c1ccccc1 [Compound 9a, 3-(2-benzylidenehydrazinyl)phenanthro [9,10-e][1,2,4]triazine]
viability at 25 µM ([1]; Homo sapiens, MTT): ≥ 50% | melting point: 286 to 290 °C

N#Cc1ccc(C=NNc2nnc3c4ccccc4c4ccccc4c3n2)cc1 [Compound 9j, 4-((2-(phenanthro[9,10-e][1,2,4]triazin-3-yl)hydrazono)methyl)benzonitrile]
Percentage of cells in G0/G1 ([5]; MCF-7, 10 µM): 71.40 ± 2.2 | Percentage of cells in G2/M ([5]; MCF-7, 10 µM): 17.95 ± 3.0 | Percentage of cells in S ([5]; MCF-7, 10 µM): 9.59 ± 2.0 | Percentage of cells in Sub G1 ([5]; MCF-7, 10 µM): 1.08 ± 0.2 | Percentage of cells in G0/G1 ([5]; MCF-7, 25 µM): 73.10 ± 3.0 | Percentage of cells in G2/M ([5]; MCF-7, 25 µM): 17.51 ± 2.6 | Percentage of cells in S ([5]; MCF-7, 25 µM): 8.09 ± 2.0 | Percentage of cells in Sub G1 ([5]; MCF-7, 25 µM): 1.30 ± 0.4 | Effect on number of cells in G0/G1 [5]: significantly enhanced the number of cells in the G0/G1 | IC50 ([1]; Homo sapiens, HT-29, 72 h): 15.3 ± 1.5 µM | Apoptosis induction by Hoechst 33258 staining [6]: showed signs of apoptosis | IC50 [2, 7]: 11.3 ± 2.1 µM | IC50 [3, 8]: 5.8 ± 0.7 µM | IC50 ([4]; Homo sapiens, MOLT-4, 72 h): 5.5 ± 0.1 µM | melting point: 231 to 234 °C

Oc1cccc(C=NNc2nnc3c4ccccc4c4ccccc4c3n2)c1O [Compound 9f, 3-((2-(phenanthro[9,10-e][1,2,4]triazin-3-yl)hydrazono)methyl)benzene-1,2-diol]
viability at 25 µM ([1]; Homo sapiens, MTT): ≥ 50% | melting point: 329 to 333 °C

Oc1cccc(C=NNc2nnc3c4ccccc4c4ccccc4c3n2)c1 [Compound 9e, 3-((2-(phenanthro[9,10-e][1,2,4]triazin-3-yl)hydrazono)methyl)phenol]
IC50 ([1]; Homo sapiens, HT-29, 72 h): 15.2 ± 2.1 µM | IC50 [2, 7]: 30 ± 6 µM | IC50 [3, 8]: 9.3 ± 1.6 µM | IC50 ([4]; Homo sapiens, MOLT-4, 72 h): 4.4 ± 1.1 µM | melting point: 219 to 223 °C

O=[N+]([O-])c1ccccc1C=NNc1nnc2c3ccccc3c3ccccc3c2n1 [Compound 9g, 3-(2-(2-nitrobenzylidene)hydrazinyl)phenanthro[9,10-e][1,2,4]triazine]
Percentage of cells in G0/G1 ([5]; MCF-7, 10 µM): 69.25 ± 2.1 | Percentage of cells in G2/M ([5]; MCF-7, 10 µM): 18.58 ± 2.2 | Percentage of cells in S ([5]; MCF-7, 10 µM): 8.79 ± 1.3 | Percentage of cells in Sub G1 ([5]; MCF-7, 10 µM): 1.35 ± 0.3 | Effect on cells in sub-G1 phase ([5]; MCF-7, 25 µM): increased the cells in the sub-G1 phase | Percentage of cells in G0/G1 ([5]; MCF-7, 25 µM): 74.76 ± 4.9 | Percentage of cells in G2/M ([5]; MCF-7, 25 µM): 13.97 ± 3.3 | Percentage of cells in S ([5]; MCF-7, 25 µM): 7.58 ± 1.9 | Percentage of cells in Sub G1 ([5]; MCF-7, 25 µM): 1.82 ± 0.3 | Effect on number of cells in G0/G1 [5]: significantly enhanced the number of cells in the G0/G1 | IC50 ([1]; Homo sapiens, HT-29, 72 h): 16.7 ± 2.2 µM | Apoptosis induction by Hoechst 33258 staining [6]: showed signs of apoptosis | IC50 [2, 7]: 11.1 ± 1 µM | IC50 [3, 8]: 6.2 ± 1.3 µM | IC50 ([4]; Homo sapiens, MOLT-4, 72 h): 5.4 ± 1 µM | melting point: 225 to 229 °C

O=[N+]([O-])c1ccc(C=NNc2nnc3c4ccccc4c4ccccc4c3n2)cc1 [Compound 9i, 3-(2-(4-nitrobenzylidene)hydrazinyl)phenanthro[9,10-e][1,2,4]triazine]
IC50 ([1]; Homo sapiens, HT-29, 72 h): 7.6 ± 0.8 µM | IC50 [2, 7]: 7.4 ± 1.4 µM | IC50 [3, 8]: 17.7 ± 1.7 µM | IC50 ([4]; Homo sapiens, MOLT-4, 72 h): 7.5 ± 0.1 µM | melting point: 240 to 244 °C

C(=NNc1nnc2c3ccccc3c3ccccc3c2n1)c1ccc[nH]1 [Compound 9k, 3-(2-((1H-pyrrol-2-yl)methylene)hydr-zinyl)phenanthro[9,10-e][1,2,4]triazine]
Percentage of cells in G0/G1 ([5]; MCF-7, 10 µM): 77.30 ± 2.8 | Percentage of cells in G2/M ([5]; MCF-7, 10 µM): 16.63 ± 2.5 | Percentage of cells in S ([5]; MCF-7, 10 µM): 4.63 ± 0.7 | Percentage of cells in Sub G1 ([5]; MCF-7, 10 µM): 1.31 ± 0.1 | Effect on cells in sub-G1 phase ([5]; MCF-7, 25 µM): increased the cells in the sub-G1 phase | Percentage of cells in G0/G1 ([5]; MCF-7, 25 µM): 77.42 ± 3.7 | Percentage of cells in G2/M ([5]; MCF-7, 25 µM): 16.13 ± 2.9 | Percentage of cells in S ([5]; MCF-7, 25 µM): 4.68 ± 1.2 | Percentage of cells in Sub G1 ([5]; MCF-7, 25 µM): 1.69 ± 0.4 | Effect on number of cells in G0/G1 [5]: significantly enhanced the number of cells in the G0/G1 | IC50 ([1]; Homo sapiens, HT-29, 72 h): 14.3 ± 2.8 µM | Apoptosis induction by Hoechst 33258 staining [6]: showed signs of apoptosis | IC50 [2, 7]: 95.4 ± 12.4 µM | IC50 [3, 8]: 4.5 ± 0.16 µM | IC50 ([3]; read-out: MCF-7 IC50, MTT, 72 h incubation): 4.7 ± 0.3 µM | IC50 ([4]; Homo sapiens, MOLT-4, 72 h): 1.7 ± 0.2 µM | melting point: 210 to 214 °C

COc1cccc2c1C(=O)c1c(O)c3c(c(O)c1C2=O)C[C@@](O)(C(=O)CO)C[C@@H]3O[C@H]1C[C@H](N)[C@H](O)[C@H](C)O1 [Doxorubicin, reference compound]
IC50 ([1]; Homo sapiens, HT-29, MTT, 72 h incubation): 0.409 ± 0.038 µM | IC50 ([2]; Chlorocebus sabaeus, Vero, MTT, 72 h incubation, normal cells): 0.926 ± 0.031 µM | IC50 ([3]; Homo sapiens, MCF7, MTT, 72 h incubation, read-out: MCF-7 IC50): 0.066 ± 0.007 µM | IC50 ([4]; Homo sapiens, MOLT-4, MTT, 72 h incubation): 0.017 ± 0.001 µM

O=[N+]([O-])c1cccc(C=NNc2nnc3c4ccccc4c4ccccc4c3n2)c1 [Compound 9h, 3-(2-(3-nitrobenzylidene)hydrazinyl)phenanthro[9,10-e][1,2,4]triazine]
IC50 ([1]; Homo sapiens, HT-29, 72 h): 12.2 ± 4.1 µM | IC50 [2, 7]: 19.4 ± 6.8 µM | IC50 [3, 8]: 10.4 ± 2.9 µM | IC50 ([4]; Homo sapiens, MOLT-4, 72 h): 3.9 ± 0.6 µM | melting point: 216 to 219 °C

N.N.[Cl][Pt][Cl] [Cisplatin, reference compound]
IC50 ([1]; MTT, 72 h incubation): 24.6 ± 3.6 µM | IC50 ([2]; MTT, 72 h incubation, normal cells): 7.8 ± 1 µM | IC50 ([3]; MTT, 72 h incubation, read-out: MCF-7 IC50): 8.1 ± 2.6 µM | IC50 ([4]; MTT, 72 h incubation): 2.9 ± 0.2 µM
